The values that follow come from PMC6684654 (Nature Communications, 2019).

≈ marks a conversion by molar mass, not a printed value. Where “and” joins values, the source holds several entries; their conditions need not be identical. Identical values can stand only once. Like-named read-outs stand apart in the source and are kept apart here. Where only a bound is given, the exact number is not on record here.

The test system of test [1] is NDM-1 K. pneumoniae XJ155019. Nature of the test: MIC, broth microdilution. Format: cell-based. The following applies: 16 h. The text has this: (§1) MIC values were identified through microdilution in sterilized 96-well polypropylene microtiter plates according to the broth microdilution guideline of the Clinical and Laboratory Standards Institute[30]. The test medium was Mueller–Hinton broth (MHB), and the strain concentrations were adjusted to 5 × 10^5 CFU/mL.

For test [2], the system named is E. coli ATCC25922. In words: MIC, broth microdilution. Type of test: cell-based. The following applies: Escherichia coli, ATCC25922; MHB, 5 × 10^5 CFU/mL, 16 h, 37 °C; read-out: MIC.
Text: as §1

A further test deals with E. coli ATCC35218. In words: MIC, broth microdilution. Format: cell-based. The following applies: Escherichia coli, ATCC35218; MHB, 5 × 10^5 CFU/mL, 16 h, 37 °C; read-out: MIC.
Text: as §1
In general terms: In broth dilution the organism is exposed to a series of concentrations in liquid medium.

Test [3] concerns NDM-1 K. pneumoniae XJ155017. Nature of the test: MIC, broth microdilution. Format: cell-based. The following applies: Klebsiella pneumoniae; MHB, 5 × 10^5 CFU/mL, 16 h, 37 °C; read-out: MIC.
Text: as §1

Test [4] deals with NDM-1 E. coli XJ141047. In words: MIC, broth microdilution. To be noted: MHB, 5 × 10^5 CFU/mL, 16 h, 37 °C. Format: cell-based.
Text: as §1

Test [5] relates to NDM-1 E. coli XJ141015. Nature of the test: MIC, broth microdilution. The following applies: MHB, 5 × 10^5 CFU/mL, 16 h, 37 °C. Format: cell-based.
Text: as §1

In test [6] the test system is NDM-1 E. coli XJ141026. In words: MIC, broth microdilution. Type of test: cell-based. The following applies: MHB, 5 × 10^5 CFU/mL, 16 h, 37 °C.
Text: as §1

Test [7] concerns NDM-1 K. pneumoniae XJ155018. Nature of the test: MIC, broth microdilution. To be noted: Klebsiella pneumoniae; MHB, 5 × 10^5 CFU/mL, 16 h, 37 °C; read-out: MIC. Format: cell-based.
Text: as §1

For test [8], the system named is NDM-1 K. pneumoniae XJ155020. Nature of the test: MIC, broth microdilution. Type of test: cell-based. To be noted: 16 h.
Text: as §1

Test [9] has as its system K. pneumoniae ATCC13883. Nature of the test: MIC, broth microdilution. Type of test: cell-based. The following applies: Klebsiella pneumoniae, ATCC13883; MHB, 5 × 10^5 CFU/mL, 16 h, 37 °C; read-out: MIC.
Text: as §1

Test [10] deals with NDM-1-producing E. coli XJ141026. In words: Bactericidal activity of combination treatment. To be noted: Imp 25 μM, Tha 0.4 μM, alone or combined, 16 h, listed as Imp. Type of test: cell-based. On the procedure:
The kill curves were determined as mentioned above to investigate the bactericidal activity of the combination treatment. […] CFUs were counted.

Test [11] concerns the target T1, NDM-1 (Klebsiella pneumoniae, UniProt C7C422). To be noted: NDM-1/Imipenem.
Procedure: The change in absorbance at 300 nm was monitored for 30 min in 96-well plates at 30 °C. The initial rate of reaction for each inhibitor concentration was calculated from the slope of the initial linear phase of the respective time course. The IC50 value was obtained by plotting the residual enzyme activity on imipenem (%) vs. inhibitor concentration (log10). […] The best fits were obtained with the competitive inhibition model by using the equation V0 = (Vmax × [S]) / (Km × (1 + [I] / Ki) + [S]). […] The kinetics parameters Km/Vmax/Kcat were calculated by fitting the data into the double reciprocal Lineweaver–Burk plots. GraphPad 5.0 was used for data analysis.
In test [12] the target is T1, NDM-1. To be noted: reported Km for imipenem; ref 15 (Yuan Q, He L, Ke H, 2012); cited from earlier work.
Test [13] concerns NDM-1 K. pneumoniae XJ155019. Nature of the test: Antibiotic susceptibility (MIC), automated identification system. To be noted: Supplementary Table 2. Type of test: cell-based. The procedure, abridged: (§2)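 Strains are typed by automated instrument, which also gives a rapid resistance screen; presence of the blaNDM-1 gene is then verified on purified genomic DNA by qPCR using a cut-off of Ct < 37.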

For test [14], the system named is E. coli ATCC25922. Described as above. Type of test: cell-based. The following applies: Supplementary Table 1. The procedure, abridged:
as §2

The test system of test [15] is NDM-1 K. pneumoniae XJ155017. Described as above. Type of test: cell-based. To be noted: Supplementary Table 2. The procedure, abridged: as §2
Test [16] relates to NDM-1 E. coli XJ141047. The description is as above. The following applies: Supplementary Table 1. Type of test: cell-based. The procedure, abridged:
as §2

For test [17], the system named is NDM-1 E. coli XJ141015. Described as above. To be noted: Supplementary Table 1. Type of test: cell-based. The procedure, abridged:
as §2

Test [18] concerns NDM-1 E. coli XJ141026. The test is described as above. Type of test: cell-based. To be noted: Supplementary Table 1. The procedure, abridged:
as §2

The subject of test [19] is NDM-1 K. pneumoniae XJ155018. The test is described as above. Type of test: cell-based. To be noted: Supplementary Table 2. In outline: as §2
The subject of test [20] is NDM-1 K. pneumoniae XJ155020. The description is as above. Format: cell-based. The following applies: Supplementary Table 2. In outline:
as §2

Test [21] relates to K. pneumoniae ATCC13883. The test is described as above. Format: cell-based. The following applies: Supplementary Table 2. The procedure, abridged: as §2
For test [22], the system named is seven NDM-1-producing strains. Nature of the test: Checkerboard assay / FIC, summary. Type of test: cell-based, E. coli; K. pneumoniae. To be noted: in combination with thanatin. The procedure: Synergy in vitro was assessed by checkerboard assays. […] Following incubation, the synergistic/additive effect was determined by calculating the FIC indices (FICI) according to the formula: FICI = (MIC of A in combination/MIC of A) + (MIC of B in combination/MIC of B). The synergy or additive was defined according to standard criteria (FICI ≤ 0.5 was defined as synergistic; 0.5 < FICI ≤ 1 was defined as additive; 1 < FICI ≤ 4 was defined as indifference; FICI > 4 was defined as antagonism)[39].

Test [23] addresses T1, NDM-1. The following applies: cited from earlier work. The text has this: NDM-1 inhibitors, which antagonize multiple subtypes of metallo-β-lactamases and protect β-lactam antibiotics from being hydrolyzed, have been widely studied for synergistic application with β-lactam antibiotics to restore their bactericidal effects[15],[25],[26]. The most common mechanism of metallo-β-lactamase inhibitors is metal ion binding.

The next test addresses apo-NDM-1 (Klebsiella pneumoniae, UniProt C7C422). Format: binding. The following applies: 50 mM HEPES pH 7.4, 0.05% Tween-20, RED-tris-NTA label, triplicate.
For test [24], the system named is NDM-1 in E. coli XJ141026 cell precipitates. In words: Imipenem hydrolysis by cell precipitates. Type of test: biochemical. To be noted: 100 μM imipenem (50 μL of 200 μM), 30 °C; treated 6 h.
Procedure: The cell pellet was washed and resuspended in 20 mM Tris-HCl (pH = 7.4) to evaluate imipenem hydrolysis in bacterial cell precipitates. The concentrations were equalized by adjusting the absorbance values to OD600 = 0.3 in the same buffer. After 50 μL of the diluted bacterial cell suspension was transferred to a 96-well plate, 50 μL of 200 μM imipenem was added to measure the hydrolytic activity of NDM-1 and 50 μL of 20 mM Tris-HCl (pH = 7.4) was added as blank. The assays were monitored at 300 nm by using a Biotek powerwave HT microplate spectrophotometer at 30 °C. Data were corrected by subtracting the absorbance values obtained from the blanks.
The test system of test [25] is NDM-1 in E. coli XJ141026 supernatant. In words: Imipenem hydrolysis by culture supernatant. Format: biochemical. The procedure: (§3) NDM-1 level in the filtered supernatant was measured using a specific ELISA kit (Shanghai Enzyme-linked Biotechnology Co., Ltd., China) and western blot analysis. Imipenem hydrolysis in the filtered supernatant at 6 h was monitored using a Biotek powerwave HT microplate spectrophotometer at 30 °C by determining the changes in absorbance at 300 nm, with a final substrate concentration of 100 μM.

The subject of test [26] is NDM-1 in E. coli XJ141026 culture supernatant. In words: NDM-1 release to culture supernatant (ELISA). Type of test: cell-based. To be noted: 0.8, 1.6, 3.2 μM; 6 or 12 h. The procedure: as §3
A general note: In an ELISA, binding on a coated surface is turned into a signal by an enzyme label.

The test system of test [27] is NDM-1 in E. coli XJ141026. Nature of the test: NDM-1 levels in supernatants and cell precipitates (western blot). Format: cell-based. To be noted: 0.8, 1.6, 3.2 μM; 6 h. On the procedure: as §3
Soluble total protein concentration was determined and normalized with the Pierce BCA Protein Assay Kit (Thermo Fisher Scientific, Waltham, MA, USA). NDM-1 levels in the cells were measured by SDS-PAGE followed by western blot analysis. The primary antibody against NDM-1 was obtained from Detai Bio-Tech Co., Ltd. by immunizing New Zealand white rabbits with purified NDM-1 protein and further detected by horseradish peroxidase-conjugated anti-rabbit secondary antibody (Santa Cruz Biotechnology Inc., USA). Anti-GroEL antibody (Abcam, ab82592) was used to verify protein loading transferred to the membranes. To clearly normalize the levels of NDM-1, we investigated the two proteins on the same membrane. […] Protein band intensities were quantified from polyvinylidene difluoride membranes with ImageJ software.
(In general: A western blot detects proteins with antibodies after separation by electrophoresis.)

Setting [28] is: Escherichia coli, read-out: MIC.

T1 sequence (C7C422 20-270, looked up, natural form): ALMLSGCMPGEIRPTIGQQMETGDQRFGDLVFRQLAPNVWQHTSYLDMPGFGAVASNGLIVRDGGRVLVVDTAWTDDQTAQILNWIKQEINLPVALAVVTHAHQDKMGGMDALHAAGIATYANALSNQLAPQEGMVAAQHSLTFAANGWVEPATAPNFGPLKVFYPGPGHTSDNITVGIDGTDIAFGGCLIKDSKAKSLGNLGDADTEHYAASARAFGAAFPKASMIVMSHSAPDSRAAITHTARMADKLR
Chain of apo-NDM-1 (C7C422 20-270, looked up, natural form): as above
Procedure for apo-NDM-1: Briefly, apo-NDM-1 was derived from the purified NDM-1 obtained above by the two rounds of dialysis against 100 volumes of 10 mM HEPES, 200 mM NaCl, and 20 mM EDTA at pH = 7.4 over a 12 h period under stirring. EDTA was removed from the resulting apoenzyme solution by three dialysis steps against 200 volumes of 10 mM HEPES, 1 M NaCl, pH = 7.4, Chelex 100 and finally three dialysis steps against 200 volumes of 50 mM HEPES, 200 mM NaCl, pH = 7.4, and Chelex 100. All buffer solutions used to prepare the apoenzymes were treated by stirring with Chelex 100 (Bio-Rad). Zinc content in the apoprotein samples was checked using ICP-MS, and apo-NDM-1 contains less than 0.2 molar equivalents of zinc ion.
Apo-NDM-1 carrying a polyhistidine-tag (His-tag) was labeled with the RED-tris-NTA second-generation dye for 30 min at room temperature in the dark according to the manufacturer’s instructions (Monolith His-tag Labeling Kit RED-tris-NTA 2nd generation, Nanotemper Technologies GmbH). […] Then, 100 nM labeled NDM-1 protein was added to the serial dilution of the compound in a 1:1 volume ratio. After incubation for 30 min at room temperature, the samples were examined with Monolith NT.115 in Premium Capillaries (MO-K025) at medium MST power and 5% LED/excitation power. Kd values were determined using the Monolith Affinity Analysis Kd fit from triplicate experiments.

A word on the MIC: it is the lowest concentration found to suppress growth. A word on the Km: it is the concentration of substrate that gives half-maximal velocity. In general, Vmax refers to the top rate of the reaction or transport when substrate is in excess. As to `C[C@@H](O)[C@H]1C(=O)N2C(C(=O)O)=C(SCCN=CN)C[C@H]12` [Imipenem], the MIC in test [1] (Klebsiella pneumoniae) was 128 µg/mL; with E. coli ATCC25922 [2], less than 0.125 µg/mL; with E. coli ATCC35218, less than 0.125 µg/mL; in [3], greater than 256 µg/mL; with NDM-1 E. coli XJ141047 [4] (setting [28]) it was 32 µg/mL; in the test with NDM-1 E. coli XJ141015 [5] (setting [28]), 16 µg/mL. For the same compound, the MIC in the test with NDM-1 E. coli XJ141026 [6] (setting [28]) was 16 µg/mL; in test [7] it was 32 µg/mL (≈ 107 µM); in test [8] (Klebsiella pneumoniae), 128 µg/mL; in the test with K. pneumoniae ATCC13883 [9], less than 0.125 µg/mL; in test [13] (Klebsiella pneumoniae), greater than 8 µg/mL; against E. coli ATCC25922 [14] (Escherichia coli, ATCC25922) it was no more than 1 µg/mL. Also, the MIC (in [15] (Klebsiella pneumoniae); with NDM-1 E. coli XJ141047 [16] (Escherichia coli); against NDM-1 E. coli XJ141015 [17] (Escherichia coli); against NDM-1 E. coli XJ141026 [18] (Escherichia coli); in [19] (Klebsiella pneumoniae); in [20] (Klebsiella pneumoniae)) was greater than 8 µg/mL in each case. Moreover, the MIC against K. pneumoniae ATCC13883 [21] (Klebsiella pneumoniae, ATCC13883) was no more than 1 µg/mL. Also, the bacterial count is 2.00E+11 CFU/mL and 11.30 Log10(CFU/mL) in [10] (replicate 1); 9.50E+11 CFU/mL and 11.98 Log10(CFU/mL) in test [10] (replicate 2); 7.41E+10 CFU/mL and 10.87 Log10(CFU/mL) in test [10] (replicate 3); 5.75E+11 CFU/mL and 11.76 Log10(CFU/mL) in [10] (replicate 4). Further, the Kcat at NDM-1 [11] amounted to 130.40 ± 2.67 s⁻¹. The Km is 104 µM on NDM-1 [11] and 94 µM on NDM-1 [12]. The Vmax on NDM-1 [11] worked out at 0.13 ± 0.03 µM/s. Also, the “susceptibility class (MIC)” value is on record as “R” in [13]; “S” in the test with E. coli ATCC25922 [14]; “R” in test [15]; “R” with NDM-1 E. coli XJ141047 [16]; “R” with NDM-1 E. coli XJ141015 [17]; “R” in the test on NDM-1 E. coli XJ141026 [18]. Also, the results for the “susceptibility class (MIC)” value (in test [19]; in test [20]; in the test on K. pneumoniae ATCC13883 [21]) were “R”, “R” and “S”, respectively. The “FIC indices, all seven strains” value in [22] is reported as no more than 1. Besides, in test [22], the effect of combination result is on record as “synergistic or additive”.
Take `N[C@H](CN[C@H](CN[C@@H](CC(=O)O)C(=O)O)C(=O)O)C(=O)O` [aspergillomarasmine A]: the “NDM-1 inhibition in words” value at NDM-1 [23] was “inhibits the NDM-1 protease activity by chelating zinc ions from the active site”.
A word on the Kd: it is the constant that tells how readily two partners part at equilibrium. A higher Kd goes with a looser complex. On to Colistin, for which the MIC in test [1] (MHB, 5 × 10^5 CFU/mL, 37 °C) worked out at 6.8 µM; in the test on NDM-1 E. coli XJ141047 [4], 1.7 µM; in the test on NDM-1 E. coli XJ141015 [5], 1.7 µM; with NDM-1 E. coli XJ141026 [6], 0.85 µM; in [8] (MHB, 5 × 10^5 CFU/mL, 37 °C) it was 6.8 µM. Besides, the Kd at apo-NDM-1 was 61.7 ± 4.92 µM. Moreover, the “hydrolysis rate of precipitates” value in test [24] is listed as “consistently decreased with increasing thanatin or colistin concentration”. Besides, the “hydrolysis of imipenem by supernatant” value in [25] (100 μM imipenem, 30 °C, treated 6 h) is “strong hydrolytic activity to imipenem”. In addition, in [25] (Discussion), the “effect on NDM-1 activity” value was “almost no effect on NDM-1 activity”. Further, the “NDM-1 release into solution” value in test [26] is “causing the release of NDM-1 into the solution in a time- and concentration-dependent manner”. For the same compound, in test [27], the “NDM-1 level in cell precipitates” value was “decreased”.
